This note sets out measurements from ChEMBL document CHEMBL6121031, “Optimizing Linezolid: Transforming It into a Selective MAO-B Inhibitor via a Toxicity-to-Activity Optimization Approach” (ACS Med Chem Lett, 2025).

Data set [1] concerns Mycobacterium tuberculosis. The experiment in a line: Antimycobacterial activity against Mycobacterium tuberculosis H37Rv measured after 7 days by MABA assay. In kind it is functional. To be noted: 168 h, time 7 day. Background: Resazurin is reduced to fluorescent resorufin, in cell work by metabolically active cells.
Data set [2] has as its target T1, Amine oxidase [flavin-containing] A (Homo sapiens, UniProt P21397).
T1 sequence (P21397 whole entry): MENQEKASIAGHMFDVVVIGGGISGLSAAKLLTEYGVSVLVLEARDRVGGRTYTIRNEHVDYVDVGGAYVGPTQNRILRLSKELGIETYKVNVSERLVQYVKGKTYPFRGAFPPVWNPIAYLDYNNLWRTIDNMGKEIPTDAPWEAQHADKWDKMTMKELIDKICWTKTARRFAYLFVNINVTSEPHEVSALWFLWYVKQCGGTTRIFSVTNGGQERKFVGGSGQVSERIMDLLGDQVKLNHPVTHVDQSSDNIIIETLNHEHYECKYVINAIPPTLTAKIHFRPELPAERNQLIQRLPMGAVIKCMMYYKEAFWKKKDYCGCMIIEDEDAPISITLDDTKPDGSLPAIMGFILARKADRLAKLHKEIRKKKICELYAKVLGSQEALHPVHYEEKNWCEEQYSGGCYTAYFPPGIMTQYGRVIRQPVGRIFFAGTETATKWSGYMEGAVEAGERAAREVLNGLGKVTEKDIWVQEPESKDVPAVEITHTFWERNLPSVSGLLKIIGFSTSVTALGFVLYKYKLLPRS
Description: Inhibition of recombinant human MAO-A using kynuramine as substrate incubated for 15 mins by absorbance based assay.

The target in data set [3] is T2, Amine oxidase [flavin-containing] B (Homo sapiens, UniProt P27338).
T2 sequence (P27338 whole entry): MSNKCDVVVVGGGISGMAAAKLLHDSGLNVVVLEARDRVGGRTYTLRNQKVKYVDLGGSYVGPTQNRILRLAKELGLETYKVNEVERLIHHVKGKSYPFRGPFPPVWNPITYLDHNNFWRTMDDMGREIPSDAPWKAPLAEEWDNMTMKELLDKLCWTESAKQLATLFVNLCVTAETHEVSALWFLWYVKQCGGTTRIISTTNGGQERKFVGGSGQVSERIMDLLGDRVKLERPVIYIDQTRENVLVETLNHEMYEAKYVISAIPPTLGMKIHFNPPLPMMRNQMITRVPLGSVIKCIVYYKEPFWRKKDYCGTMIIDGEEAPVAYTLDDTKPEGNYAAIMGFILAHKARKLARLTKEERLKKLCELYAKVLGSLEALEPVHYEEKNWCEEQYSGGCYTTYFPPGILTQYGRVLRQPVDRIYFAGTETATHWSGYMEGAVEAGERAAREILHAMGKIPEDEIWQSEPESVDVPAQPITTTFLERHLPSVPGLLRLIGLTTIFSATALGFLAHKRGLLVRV

Data set [4] can be described thus: Cytotoxicity against human THP-1 cells incubated for 3 days by Cell Titer-Glo Luminescent Cell Viability Assay. In kind it is toxicity, cell-based. In general terms: In ATP-based viability assays light output follows the ATP content of the culture.
Data set [5] deals with T2, Amine oxidase [flavin-containing] B. The experiment in a line: Reversible competitive inhibition of human MAO-B assessed as residual activity after dialysis at 0.068 uM incubated for 30 mins relative to control. To be noted: 0.5 h, read-out: Activity.
Data set [6] shares this target. The experiment in a line: Reversible competitive inhibition of human MAO-B assessed as residual activity before dialysis at 0.068 uM incubated for 30 mins relative to control. To be noted: 0.5 h, read-out: Activity.
Data set [7] has the same target. Description: Potency index, ratio of Pargyline IC50 to test compound IC50 for inhibition of recombinant human MAO-B using benzylamine as substrate incubated for 15 mins by absorbance based assay. To be noted: 0.25 h.
Data set [8] shares this target. Description: Potency index, ratio of Clorgyline IC50 to test compound IC50 for inhibition of recombinant human MAO-B using benzylamine as substrate incubated for 15 mins by absorbance based assay. The note with it: 0.25 h.
For data set [9] the target is unchanged. To be noted: 0.5 h.

A word on the MIC: it is the lowest concentration found to suppress growth. High values mean a need for much substance, low ones inhibition by little substance. As usually defined, the IC50 is the concentration needed to halve the response being measured. Consider `CCCCS(=O)(=O)Nc1nnc(-c2ccc(N3CCSCC3)c(F)c2)s1`, for which the MIC in data set [1] is more than 25 µg/mL. Further, the values for the IC50 in data set [2] and in data set [3] were 21500 nM and 50 nM, respectively.

In turn, `O=C(Nc1nnc(-c2ccc(N3CCSCC3)c(F)c2)s1)C1CC1` yielded an MIC in [1] of more than 25 µg/mL. The IC50 is more than 40000 nM in [2] and 100 nM in data set [3].

The compound `CS(=O)(=O)Nc1nnc(-c2ccc(N3CCSCC3)c(F)c2)s1` yielded an MIC in data set [1] of more than 25 µg/mL. Moreover, the IC50 turned out to be 18400 nM in data set [2] and 40 nM in data set [3].

`CC(=O)Nc1nnc(-c2ccc(N3CCSCC3)c(F)c2)s1` registered an IC50 at 3 days in [4] of more than 300 µg/mL. The MIC in [1] was more than 25 µg/mL. Moreover, the IC50 amounted to 8960 nM in data set [2] and 70 nM in [3].

With `CC(=O)Nc1nnc(-c2ccc(N3CCCC3)c(F)c2)s1`, in [1], the MIC is more than 25 µg/mL. Further, the IC50 was found to be 13200 nM in data set [2] and 170 nM in data set [3].

For the compound `O=S(=O)(Nc1nnc(-c2ccc(N3CCSCC3)c(F)c2)s1)C1CC1`, the MIC in [1] is more than 25 µg/mL. The values for the IC50 in data set [2] and in data set [3] were 26000 nM and 50 nM, respectively.

Consider `CCS(=O)(=O)Nc1nnc(-c2ccc(N3CCSCC3)c(F)c2)s1`, for which the activity at 0.068 µM is 73.5% in data set [5] and 35% in [6]. The same compound gave an IC50 at 3 days in [4] of more than 300 µg/mL. Further, the entries for the “Ratio IC50” value in data set [7] and in [8] were 4 and 54, respectively. The MIC in data set [1] was more than 25 µg/mL. In addition, the IC50 in data set [2] is 15800 nM; in data set [3] it was 30 nM.

`CC(=O)Nc1nnc(-c2ccc(N3CCOCC3)c(F)c2)s1` registered an MIC in data set [1] of more than 25 µg/mL. Besides, the IC50 is more than 40000 nM in [2] and 1020 nM in data set [3].

Turning to `C#CCN(C)Cc1ccccc1` [PARGYLINE], the activity at 0.028 µM in [9] is 34%.
